Where “and” joins values, the source holds several entries; their conditions need not be identical. Equal entries are not always repeated.
Test system: eIF2-GTP-Met-tRNAi ternary complex
Assay: Ternary complex assay (dual luciferase, firefly/renilla ratio) in stable KLN-tTA/pBISA-DL(ATF-4) cells; HTS and hit confirmation
Type: cell-based, mouse
Design: Activity 10 uM / Activity 2.5 uM / Activity 5 uM: unit not given here
Settings: for Activity 2.5 uM: compound at 2.5 uM; for Activity 2.5 uM / Activity 10 uM / Activity 5 uM: confirmed hits of the screen (Table 5); for Activity 10 uM: compound at 10 uM; for Activity 5 uM: compound at 5 uM
Excerpt: For assay development, a bi-directional plasmid was designed in which a common promoter/enhancer complex drives the transcription of firefly luciferase (F-luc) ORF fused to the 5′ untranslated region (UTR) of ATF-4, and of the renilla luciferase (R-luc) ORF fused to a 90-nucleotide 5′ UTR derived from the plasmid (FIG. 6A). Because the tetracycline-regulated transactivator ((tTA), required for driving transcription from this vector) is not normally expressed in the mammalian cells, stable KLN cancer cells were constructed that expressed tTA (KLN-tTA).
The KLN-tTA colonies that drove expression of reporter genes from pBISA-DL plasmid were selected by transient transfection and dual luciferase assay. One of these KLN-tTA cell lines was transfected with the pBISA-DL^(ATF-4) expression vector, stable colonies were selected by dual luciferase assay and expanded. To determine if reduced availability of the eIF2*GTP*Met-tRNAi ternary complex increased the translation of firefly luciferase and decreased translation of renilla luciferase, selected KLN-tTA/pBISA-DL^(AFT-4) colonies were treated with thapsigargin (TG) or tunicamycin (TU), two agents known to cause phosphorylation of eIF2α.
This assay was then adapted for high throughput screening in 96 and 384 well plates. This was done by evaluating the cell density, length of exposure to compounds, DMSO tolerance and optimum firefly and renilla substrate. We then challenged these cells with thapsigargin or DMSO. […] Cell-based assays usually have higher variation than homogeneous in vitro assays due to position effect in the plate, and other variables associated with handling of cells and the plates.
Screening was conducted in 384 well white opaque plates (Nalge Nunc), 100 μl volume RPMI+10% fetal bovine serum. Cells were plated at the sub-confluent density of 10,000 cells/well, and allowed to attach for a period of 16-18 hours at 37° C., 5% CO2. Compounds were added as 1 μl of a 1 mM DMSO stock solution for a final screening concentration of 10 μM, using low-volume tips for transfer (Molecular Bioproducts). Cells were then incubated in the presence of compound for an additional sixteen hours, again at 37° C., 5% CO2. Following incubation 70 μl of the culture medium was removed from each well to allow for reagent addition and plates were allowed to equilibrate to room temperature for thirty minutes. Firefly luciferase reporter activity was then read by the addition of thirty microliters of Dual Glo Luciferase reagent (Promega), followed by one hour incubation at room temperature to allow for adequate signal buildup. Luminescence counting was conducted on a Microbeta Trilux using a 1 second read time. Renilla luciferase reporter activity was measured following addition of 30 μl Stop and Glo Luciferase reagent (Promega) and incubation identical to the one carried out for the firefly luciferase one.
Compound scores were interpreted as firefly luciferase activity divided by renilla luciferase activity, normalized to the plate's DMSO control. […] All data analysis was conducted using the BioAssay HTS software package (CambridgeSoft).
102,709 compounds in the NCI Open Chemical Repository were then screened using this HTS assay. […] Initial hits were confirmed by repeating the same dual luciferase assay in 96 well plates. Briefly, 20,000 cells/well were plated in triplicate for each concentration (10, 5 and 2.5 μM) of the compounds.

Row | SMILES | Activity 2.5 uM | Activity 10 uM | Active or inactive N,N′-diarylurea (ternary complex assay) (designation in figure legend) | Activity 5 uM
1 | CCN(CC)C(=S)[S-].CCN(CC)C(=S)[S-].[Cu+2] [Compound 1337] | 7.15 |  |  | 
2 | Cc1nc(Nc2cccc(Cl)c2)c2cnn(-c3ccc(Cl)cc3)c2n1 [Compound 1626] | 0.79 | 5.31 |  | 
3 | O=C(Nc1ccc(Cl)c(C(F)(F)F)c1)Nc1ccc2nnsc2c1 [Compound 1780] |  |  | active | 
4 | c1ccc(NNc2ccc3ccccc3n2)cc1 [Compound 1874] | 4.27 | 3.99 |  | 
5 | O=C(CCl)Nc1cc(Cl)ccc1Cl [Compound 8275] | 0.81 |  |  | 
6 | Cc1ccc2c(c1)sc(-c1ccc(N(C)C)cc1)[n+]2C.[Cl-] [Compound 11235] | 4.88 and 7.3 |  |  | 
7 | CCCCCCCC[N+](CCCC)(CCCC)CCCC.O=C([O-])CCl [Compound 12134] | 8.83 |  |  | 
8 | CCOC(=O)N(C(=O)c1ccc([As]=O)cc1)C(=O)c1ccc([As]=O)cc1 (stereo not drawn) [Compound 12750] | 1.79 | 4.9 |  | 
9 | CCN(CC)CCCC(C)n1c(SC)nc2cc(Cl)ccc21 (stereo not drawn) [Compound 13268] | 1.46 | 3.18 |  | 
10 | CCCCCCCCC(N)CCCCCCCC.Cl [Compound 14209] | 0.85 | 14.32 |  | 
11 | Cc1cc(/C=C/C2CCC3CC(C)CCC3N2CCO)c(C)n1-c1ccccc1 (stereo not drawn) [Compound 14238] | 1.37 | 3.02 |  | 
12 | CC(=O)NC1=CC(=O)C=CC1=Nc1ccc(N(C)C)cc1C [Compound 14739] | 1.12 | 4.06 |  | 
13 | Cc1c(Cl)ccc2c(C(O)CNCc3ccccc3)cc(-c3ccc(Cl)cc3)nc12 (stereo not drawn) [Compound 14755] | 0.68 | 6.63 |  | 
14 | CC(C)Nc1nc(NC(C)C)c2cnn(-c3ccccc3)c2n1 [Compound 19143] | 1.72 | 3.2 |  | 
15 | CCCCCCCCCCCCCCCCCC[n+]1ccc(C(C)CC)cc1.[Cl-] (stereo not drawn) [Compound 19763] | 4.63 | 13.29 |  | 
16 | CCO[C@@H]([CH2][Hg][Cl])[C@](C)([CH2][Hg][Cl])OCC [Compound 21293] | 3.16 |  |  | 
17 | CN(C)c1ccc(C2(Cl)c3ccccc3N(Cc3ccccc3)c3ccccc32)cc1.Cl [Compound 21533] | 2.03 | 8.88 |  | 
18 | O=C(C=Cc1ccc([N+](=O)[O-])o1)C=Cc1ccc([N+](=O)[O-])o1 [Compound 21620] | 0.74 | 16.28 |  | 
19 | c1ccc(-c2ccc(-c3cnc(-c4ccc(-c5ccccc5)cc4)o3)cc2)cc1 [Compound 24863] | 1.87 | 3.22 |  | 
20 | CCCCN(CCCC)CCC(O)(c1ccc(OC)c2ccccc12)C(O)(CCN(CCCC)CCCC)c1ccc(OC)c2ccccc12.Cl (stereo not drawn) [Compound 26101] | 0.78 | 4.13 |  | 
21 | Br.CCC1=C(C)/C(=C/c2[nH]c(C)c(CC)c2C)N=C1C [Compound 26672] | 1.44 | 57.61 |  | 
22 | CCCCCCCCCCCCCCCC[N+](C)(C)CCCCCC(=O)OC.[Br-] [Compound 26847] | 1.83 | 8.15 |  | 
23 | O=C1C=C(N2CC2)C(=O)C(N2CC2)=C1N1CC1 [Compound 29215] | 36.4 |  |  | 
24 | Clc1ccc(-c2nc(-c3ccccc3)[nH]c2-c2ccc(Cl)c(Cl)c2)cc1Cl [Compound 30759] | 0.88 | 6.9 |  | 
25 | COc1ccc2nc3cc(Cl)ccc3c(NCCCCN(C)C)c2c1.Cl [Compound 32929] | 0.35 | 5.76 |  | 
26 | Cc1cc[n+](C2CCC3(C)C(=CCC4C3CCC3(C)C(C(C)CCCC(C)C)CCC43)C2)cc1.Cc1ccc(S(=O)(=O)[O-])cc1 (stereo not drawn) [Compound 32994] | 2.83 | 6.52 |  | 

Row | SMILES | Activity 2.5 uM | Activity 10 uM | Active or inactive N,N′-diarylurea (ternary complex assay) (designation in figure legend) | Activity 5 uM
27 | CC(C)CCCC(C)C1CCC2C3CC=C4CC([n+]5cccc6ccccc65)CCC4(C)C3CCC12C.Cc1ccc(S(=O)(=O)[O-])cc1 (stereo not drawn) [Compound 32999] | 2.41 | 6.87 |  | 
28 | COc1ccc2nc(CCc3ccccc3)ccc2c1 [Compound 35424] | 2.55 | 3.07 |  | 
29 | CN1c2ccccc2C(c2ccccc2)c2ccc(Nc3ccccc3)cc21.Cl (stereo not drawn) [Compound 35730] | 5.35 | 6.76 |  | 
30 | Cc1ccc(C(CN(C)C)C(=O)c2ccccc2)cc1C.Cl (stereo not drawn) [Compound 36684] | 0.76 | 4.2 |  | 
31 | O=C1c2ccccc2C(=O)C2CC(c3ccccc3)=CCC12 (stereo not drawn) [Compound 38062] | 2.61 | 5.58 |  | 
32 | CC1=CC(=O)C(C(C)C)=CC1=Nc1ccc(N(C)C)cc1 [Compound 39901] | 1.41 | 4.1 |  | 
33 | CC(=O)Nc1ccccc1[As](O[As](c1ccccc1)c1ccccc1NC(C)=O)c1ccccc1 (stereo not drawn) [Compound 42108] |  | 3.7 |  | 
34 | O=C(Nc1ccc2ccccc2c1)c1cc2ccccc2cc1O [Compound 42112] | 3.76 | 3.76 |  | 
35 | CCN1/C(=C/c2cc(C)nc(-c3ccccc3)[n+]2C)C=Cc2ccccc21.[Cl-] [Compound 43683] | 3.73 | 5.26 |  | 
36 | CC(=O)Nc1cc(OC(C)=O)c2ccccc2c1OC(C)=O [Compound 45171] | 3.08 |  |  | 
37 | COc1ccc2c3c(ccc2c1)[C@@H]1C/C(=C(\OC(C)=O)C(F)(F)F)C(=O)[C@@]1(C)CC3 [Compound 45226] | 3.03 | 7.27 |  | 
38 | CC(=O)OC1CCC2(C)C3CCC4(C)C(CCC4(Br)C(=O)CBr)C3CC(Br)C2(Br)C1 (stereo not drawn) [Compound 45884] | 0.47 | 16.23 |  | 
39 | Oc1cccc(-c2ccc(-c3ccccc3)cc2)c1 [Compound 47145] | 3.4 | 5.16 |  | 
40 | N#C/C(=C(\c1ccccc1)c1ccccn1)c1ccccc1 [Compound 50915] | 1.11 | 7.81 |  | 
41 | O=Nc1c(O)ccc2ccccc12.[Fe].[Na+] [Compound 51522] | 1.66 | 10.99 |  | 
42 | Cc1cc2c(C(C)C)c(O)c(O)c(C=Nc3cc(C(F)(F)F)ccc3Cl)c2c(O)c1-c1c(C)cc2c(C(C)C)c(O)c(O)c(C=Nc3cc(C(F)(F)F)ccc3Cl)c2c1O [Compound 52531] | 0.8 | 5.18 |  | 
43 | O=C(Nc1ccc(Cl)cc1)C(Cl)C(Cl)c1ccccc1 (stereo not drawn) [Compound 54895] |  | 4.975 |  | 4.288
44 | O=C(/C=C/c1ccc(Cl)cc1)CC(Cl)c1ccc(Cl)cc1 (stereo not drawn) [Compound 54905] |  | 16.011 |  | 11.56
45 | CCCCCCCCCCCCCCCC[N+]1(C)CC2CCCCC2C1 (stereo not drawn) [Compound 55237] |  | 6.6 |  | 3.4
46 | CCCCCCCCCCCCCCCC[N+]1(CCCCCCCCCC)CC2CCCCC2C1.[I-] (stereo not drawn) [Compound 55240] |  | 5.2 |  | 4.2
47 | Cc1ccc(-c2cc(-c3ccccc3)[s+]c3ccc(C)cc23)cc1 [Compound 55867] |  | 3.2 |  | 1.1
48 | C[N+](C)=C1C=CC(=C2C=C(c3ccccc3)Oc3ccccc32)C=C1 [Compound 55869] |  | 13.613 |  | 13.24
49 | O=C(C[Si](CC(=O)c1cccc(C(F)(F)F)c1)CC(=O)c1cccc(C(F)(F)F)c1)c1cccc(C(F)(F)F)c1 [Compound 55879] |  | 3.8 |  | 1.7
50 | Cc1cc(C(O)(c2ccc(N)cc2)c2ccc(N)cc2)ccc1N.Nc1ccc(C(O)(c2ccc(N)cc2)c2ccc(N)cc2)cc1 [Compound 56345] |  | 3.64 |  | 3.4
51 | CCN(CCO)c1ccc(N=Nc2ccc([N+](=O)[O-])cc2)cc1 [Compound 57019] |  | 5.441 |  | 5.388

Reference: patent publication US9932300B2, “N,N′-diarylurea compounds and N,N′-diarylthiourea compounds as inhibitors of translation initiation” (President and Fellows of Harvard College, priority 2009, dated 2018)
